For data set [1], the species on record is Homo sapiens. The experiment in a line: Induction of recombinant PP2A catalytic subunit (unknown origin) activity assessed as phosphate level using threonine-phosphopeptide at 5 uM.
The species named for data set [2] is Homo sapiens. The experiment in a line: Induction of recombinant PP2A catalytic subunit (unknown origin) activity assessed as phosphate level at 5 uM relative to control.
Data set [3] concerns MN9D. The experiment in a line: Induction of PP2A catalytic subunit activity in mouse MN9D cells assessed as phosphate level at 5 uM. In kind it is cell-based.
The nature of data set [4]: Cytotoxicity against mouse MN9D cells assessed as metabolic activity at > 1.5 uM after 72 hrs by MTS assay. In kind it is ADME, cell-based. For orientation: Formazan colour is commonly taken as a measure of viable cells.
Data set [5] can be described thus: Neuroprotective activity in mouse MN9D cells assessed as cell division at 0.04 to 0.16 uM after 72 hrs by DAPI staining (reference value: 100 +/- 4.15%). In kind it is functional.
The nature of data set [6]: Neuroprotective activity in mouse MN9D cells assessed as stimulation of BDNF expression at 0.16 uM after 24 hrs. In kind it is functional, cell-based.
In data set [7] the test system is MN9D. The experiment in a line: Neuroprotective activity in mouse MN9D cells assessed as blocking of TNF-alpha associated toxicity at 0.16 uM after 72 hrs by Trypan blue staining. In kind it is functional, cell-based.
Another data set deals with PC-12. The experiment in a line: Induction of PP2A catalytic subunit activity in rat PC12 cells assessed as phosphate level at 5 uM measured 30 to 120 mins. In kind it is cell-based.

Each structure is given as a SMILES string. The source made the active and inactive calls. The calls are words filed in the database; no cut-off is given here.

For `CCCCCCCCCCCCC/C=C/[C@H](O)[C@@H](CO)NC(=O)CCCCC`, the outcome in the data set filed under Homo sapiens [1] was Active.

Turning to `CCCCCCCCCCCCC/C=C/[C@H](O)[C@@H](CO)NC(=O)CCCCCCCCC`, the outcome in the data set listed under Homo sapiens [1] was inactive.

Take `CCCCCCCCc1ccc(CCC(CO)(CO)NC(=O)CC[P+](c2ccccc2)(c2ccccc2)c2ccccc2)cc1.[Br-]`: the fold change (FC) in the data set listed under Homo sapiens [2] was found to be 4. Besides, the outcome (with MN9D [3]; in data set [6]) was Active. Also, the Activity result is listed as “Toxic” in data set [4] and 101.37% in data set [5]. Further, the inhibition entry in the data set with MN9D [7] was “Active”.

In the case of `CCCCCCCCCCCCC/C=C/[C@H](O)[C@@H](CO)NC(C)=O`, in the data set filed under Homo sapiens [1], the outcome was Active. Besides, the fold change (FC) in the data set listed under Homo sapiens [2] was determined as 8.

Regarding `CCCCCCCCc1ccc(CCC(N)(CO)CO)cc1` [FINGOLIMOD], the result (in the data set filed under Homo sapiens [1]; in the data set with PC-12; with MN9D [3]; in data set [6]) was Active. Besides, the fold change (FC) in the data set filed under Homo sapiens [2] stood at 4. For the same compound, the figures for the Activity result in data set [4] and in data set [5] were “Toxic” and 98%, respectively. For the same compound, the inhibition result in the data set with MN9D [7] was “Active”.

Regarding `CCCCCCCCc1ccc(CCC(CO)(CO)NC(C)=O)cc1`, in the data set listed under Homo sapiens [2], the fold change (FC) is 8. Further, the outcome (in the data set on MN9D [3]; in data set [6]) was Active. The Activity result is “Toxic” in data set [4] and 91.44% in data set [5]. Besides, in the data set on MN9D [7], the inhibition entry is “Active”.

These data come from ChEMBL document CHEMBL3352354, “Novel FTY720-Based Compounds Stimulate Neurotrophin Expression and Phosphatase Activity in Dopaminergic Cells” (ACS Med Chem Lett, 2014).
